Measurements taken from US11248234B2, “Herbicide-resistant hydroxyphenylpyruvate dioxygenases” (BASF SE, priority 2015, dated 2022).

Legend:
[1] = target: Scenedesmus HPPD (Seq ID: 2) (Tetradesmus obliquus, UniProt A0A383WMN4, N195D); experiment: In vitro HPPD activity assay; assay type: biochemical
Procedure: (§1) HPPD produces homogentisic acid and CO2 from 4-hydroxyphenylpyruvate (4-HPP) and O2. The activity assay for HPPD is based on the analysis of homogentisic acid by reversed phase HPLC.
(§2) The assay mixture can contain 150 mM potassium phosphate buffer pH 7.0, 50 mM L-ascorbic acid, 100 μM Catalase (Sigma-Aldrich), 1 μM FeSO4 and 0.2 units of purified mutated HPPD enzyme in a total volume of 505 μl. 1 unit is defined as the amount of enzyme that is required to produce 1 nmol of HGA per minute at 20° C.
(§3) After a preincubation of 30 min the reaction is started by adding 4-HPP to a final concentration of 0.05 mM. The reaction is allowed to proceed for 45 min at room temperature. The reaction is stopped by the addition of 50 μl of 4.5 M phosphoric acid. The sample is filtered using a […] pore size PVDF filtration device.
(§4) 5 μl of the cleared sample is analyzed on an UPLC HSS T3 column (particle size 1.8 μm, dimensions 2.1×50 mm; Waters) by isocratic elution using 90% 20 mM NaH2PO4 pH 2.2, 10% methanol (v/v).
(§5) HGA is detected electrochemically at 750 mV (mode: DC; polarity: positive) and quantified by integrating peak areas (Empower software; Waters).
(§6) Inhibitors are dissolved in DMSO (dimethylsulfoxide) to a concentration of 0.5 mM. From this stock solution serial five-fold dilutions are prepared in DMSO, which are used in the assay. The respective inhibitor solution accounts for 1% of the assay volume. Thus, final inhibitor concentrations range from 5 μM to 320 pM, respectively. Activities are normalized by setting the uninhibited enzyme activity to 100%. IC50 values are calculated using non-linear regression.
(§7) Using methods which are described in the above examples or well known in the art, purified, recombinant mutated HPPD enzymes are characterized with respect to their kinetic properties and sensitivity towards HPPD inhibiting herbicides. Apparent michaelis constants (Km) and maximal reaction velocities (Vmax) are calculated by non-linear regression with the software GraphPad Prism 5 (GraphPad Software, La Jolla, USA) using a substrate inhibition model. Apparent kcat values are calculated from Vmax assuming 100% purity of the enzyme preparation. Weighted means (by standard error) of Km and IC50 values are calculated from at least three independent experiments. The Cheng-Prusoff equation for competitive inhibition (Cheng, Y. C.; Prusoff, W. H. Biochem Pharmacol 1973, 22, 3099-3108) is used to calculate dissociation constants (Ki).
(§8) Field performance of the HPPD enzyme, which is used as a herbicide tolerance trait may depend not only on its lack of sensitivity towards HPPD inhibiting herbicides but also on its activity. To assess the potential performance of a herbicide tolerance trait a tolerance index (TI) is calculated using the following formula: […]
(§9) Easy comparison and ranking of each trait is enabled by normalizing tolerance indexes on Arabidopsis wild-type HPPD.

[2] = target: Scenedesmus Short HPPD (Seq ID: 4) (Tetradesmus obliquus, UniProt A0A383WMN4, DEL398-433/N195D); experiment: In vitro HPPD activity assay; assay type: biochemical
Procedure: as §1, §2, §3, §4, §5, §6, §7, §8, §9

[3] = target: T1, Arabidopsis HPPD (Seq ID: 42) (Arabidopsis thaliana, UniProt P93836); experiment: In vitro HPPD activity assay (homogentisic acid by HPLC); assay type: biochemical
T1 construct: His6; made in house; host or cells: E. coli BL21 (DE3)
T1 sequence (P93836 1-445): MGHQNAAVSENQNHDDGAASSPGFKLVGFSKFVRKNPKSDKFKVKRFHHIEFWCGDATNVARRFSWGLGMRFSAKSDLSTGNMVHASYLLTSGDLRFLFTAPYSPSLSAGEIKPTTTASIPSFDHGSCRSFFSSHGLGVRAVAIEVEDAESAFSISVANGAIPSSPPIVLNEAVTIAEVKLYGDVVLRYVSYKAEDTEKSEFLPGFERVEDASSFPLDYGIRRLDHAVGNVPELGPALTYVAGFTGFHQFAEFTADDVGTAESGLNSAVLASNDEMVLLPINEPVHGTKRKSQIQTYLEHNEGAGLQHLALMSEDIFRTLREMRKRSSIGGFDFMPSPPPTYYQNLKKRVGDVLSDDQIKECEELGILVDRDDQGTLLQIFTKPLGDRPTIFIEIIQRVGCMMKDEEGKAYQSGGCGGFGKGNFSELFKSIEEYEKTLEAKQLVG
Procedure: as §1, §2, §3, §4, §5
as §6, with “Thus, final inhibitor concentrations range from 5 μM to 320 pM, respectively.” left out
as §7, with “Apparent kcat values are calculated from Vmax assuming 100% purity of the enzyme preparation.” left out, “experiments.” for “experiments. The Cheng-Prusoff equation for competitive inhibition (Cheng, Y. C.; Prusoff, W. H. Biochem Pharmacol 1973, 22, 3099-3108) is used to calculate dissociation constants (Ki).”
as §8, §9

[4] = tested on: WT (non-transgenic control) Arabidopsis plants; experiment: Greenhouse spray test, injury evaluation; assay type: in vivo, Arabidopsis thaliana; conditions: 14 DAT
Procedure: (§10) Non-transgenic control plants were treated in parallel and pictures taken 14 days after treatment.
(§11) For post emergence treatment, the test plants are first grown to a height of 3 to 15 cm, depending on the plant habit, and only then treated with the herbicides. For this purpose, the test plants are either sown directly and grown in the same containers, or they are first grown separately and transplanted into the test containers a few days prior to treatment.
(§12) Additionally, T1 and T2 transgenic Arabidopsis plants can be tested for improved tolerance to HPPD-inhibiting herbicides in greenhouse studies. Herbicide injury scoring is done 2-3 weeks after treatment and is rated on a scale of 0 to 100%, 0% being no injury and 100% being complete death.
(§13) Transgenic T2 Arabidopsis plants were sprayed with a range of doses from 1.56-25 g/ha of different HPPD-inhibiting herbicides and injury evaluations were taken two weeks after treatment (FIG. 4). As depicted in Table 8, control plants were severely injured by all doses of herbicides applied, with at least 58% of leaf material being damaged at the lowest application rate and 100% leaf damage at the second application rate.

[5] = tested on: transgenic Arabidopsis plants (T2) SoHPPD Q317H (short); experiment: Greenhouse spray test, injury evaluation; assay type: in vivo, Arabidopsis thaliana; conditions: 14 DAT
Procedure: as §10, §11, §12, §13

[6] = tested on: transgenic Arabidopsis plants (T2) SoHPPD F363I (short); experiment: Greenhouse spray test, injury evaluation; assay type: in vivo, Arabidopsis thaliana; conditions: for Injury: 14 DAT; for average damage: highest application rate, average of events
Procedure: as §10, §11, §12, §13

[7] = tested on: transgenic Arabidopsis plants (T2) SoHPPD I419V (short); experiment: Greenhouse spray test, injury evaluation; assay type: in vivo, Arabidopsis thaliana; conditions: 14 DAT
Procedure: as §10, §11, §12, §13

[8] = apparent michaelis constant, substrate inhibition model, read-out: Km (4-HPP)
[9] = apparent, from Vmax assuming 100% purity

Scenedesmus Short HPPD (Seq ID: 4), sequence (A0A383WMN4 entry or part of it N195D/DEL398-433): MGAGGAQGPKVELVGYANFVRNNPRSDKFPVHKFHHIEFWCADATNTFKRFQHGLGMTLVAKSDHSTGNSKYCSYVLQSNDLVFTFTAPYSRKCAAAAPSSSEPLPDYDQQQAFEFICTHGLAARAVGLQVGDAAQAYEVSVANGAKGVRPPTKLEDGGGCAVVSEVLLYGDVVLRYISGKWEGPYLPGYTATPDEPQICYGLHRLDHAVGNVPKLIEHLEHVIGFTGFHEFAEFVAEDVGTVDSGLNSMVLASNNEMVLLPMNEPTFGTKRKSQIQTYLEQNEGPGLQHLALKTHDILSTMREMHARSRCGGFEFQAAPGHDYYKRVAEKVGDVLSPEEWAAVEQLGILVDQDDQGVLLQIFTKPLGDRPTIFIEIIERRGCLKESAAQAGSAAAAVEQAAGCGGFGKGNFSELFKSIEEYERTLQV
Scenedesmus HPPD (Seq ID: 2), sequence (A0A383WMN4 entry or part of it N195D): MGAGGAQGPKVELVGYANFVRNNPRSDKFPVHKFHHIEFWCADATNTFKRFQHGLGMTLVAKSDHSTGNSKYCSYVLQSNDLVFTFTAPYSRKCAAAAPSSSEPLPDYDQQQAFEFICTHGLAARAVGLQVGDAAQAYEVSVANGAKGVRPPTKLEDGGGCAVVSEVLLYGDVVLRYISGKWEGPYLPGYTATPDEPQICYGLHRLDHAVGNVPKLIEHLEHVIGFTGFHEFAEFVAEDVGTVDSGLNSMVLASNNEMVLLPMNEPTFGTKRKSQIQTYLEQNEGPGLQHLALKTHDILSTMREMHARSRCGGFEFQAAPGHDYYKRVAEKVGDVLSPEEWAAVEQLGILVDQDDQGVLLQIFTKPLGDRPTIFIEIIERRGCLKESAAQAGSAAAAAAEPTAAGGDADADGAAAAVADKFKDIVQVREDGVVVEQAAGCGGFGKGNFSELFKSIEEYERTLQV

CN(c1c(Cl)ccc(C2=C(O)c3ncccc3C(C)(C)S2(=O)=O)c1Cl)S(C)(=O)=O [Inhibitor 3, N-[2,6-dichloro-3-(8-hydroxy-5,5-dimethyl-6,6-dioxo-thiopyrano[4,3-b]pyridin-7-yl)phenyl]-N-methyl-methanesulfonamide]
Ki [1]: 110 nM | Ki [2]: 580 nM

O=C(O)C(=O)Cc1ccc(O)cc1 [Inhibitor 4-HPP, 4-hydroxyphenylpyruvate]
Km [1, 8]: 160 µM | kcat [1, 9]: 6 s⁻¹ | Km [2, 8]: 89 µM | kcat [2, 9]: 17 s⁻¹ | Km [3, 8]: 13 µM | kcat [3, 9]: 12.9 s⁻¹

CSc1c(Cl)cc(F)c(C(=O)Nc2nnnn2C)c1Cl [Inhibitor 7, 2,4-dichloro-6-fluoro-3-methylsulfanyl-N-(1-methyltetrazol-5-yl)benzamide]
Injury ([4]; 1.56 g ai/ha): 88% | Injury ([4]; 6.25 g ai/ha): 100% | Injury ([4]; 25 g ai/ha): 100% | Injury ([5]; Event B, 1.56 g ai/ha): 0% | Injury ([5]; Event B, 6.25 g ai/ha): 18% | Injury ([5]; Event B, 25 g ai/ha): 78% | Injury ([5]; Event C, 1.56 g ai/ha): 0% | Injury ([5]; Event C, 6.25 g ai/ha): 8% | Injury ([5]; Event C, 25 g ai/ha): 73% | Injury ([6]; Event B, 1.56 g ai/ha): 0% | Injury ([6]; Event B, 6.25 g ai/ha): 5% | Injury ([6]; Event B, 25 g ai/ha): 0% | Injury ([6]; Event C, 1.56 g ai/ha): 0% | Injury ([6]; Event C, 6.25 g ai/ha): 0% | Injury ([6]; Event C, 25 g ai/ha): 0% | average damage [6]: no damage | Injury ([7]; Event G, 1.56 g ai/ha): 0% | Injury ([7]; Event G, 6.25 g ai/ha): 28% | Injury ([7]; Event G, 25 g ai/ha): 40% | Injury ([7]; Event H, 1.56 g ai/ha): 5% | Injury ([7]; Event H, 6.25 g ai/ha): 53% | Injury ([7]; Event H, 25 g ai/ha): 93%

CSc1c(C(F)(F)F)ccc(C(=O)Nc2nnnn2C)c1Cl [Inhibitor 11, 2-chloro-3-methylsulfanyl-N-(1-methyltetrazol-5-yl)-4-(trifluoromethyl)benzamide]
Injury ([4]; 1.56 g ai/ha): 100% | Injury ([4]; 6.25 g ai/ha): 100% | Injury ([4]; 25 g ai/ha): 100% | Injury ([5]; Event B, 1.56 g ai/ha): 40% | Injury ([5]; Event B, 6.25 g ai/ha): 99% | Injury ([5]; Event B, 25 g ai/ha): 100% | Injury ([5]; Event C, 1.56 g ai/ha): 15% | Injury ([5]; Event C, 6.25 g ai/ha): 79% | Injury ([5]; Event C, 25 g ai/ha): 100% | Injury ([6]; Event B, 1.56 g ai/ha): 0% | Injury ([6]; Event B, 6.25 g ai/ha): 0% | Injury ([6]; Event B, 25 g ai/ha): 15% | Injury ([6]; Event C, 1.56 g ai/ha): 8% | Injury ([6]; Event C, 6.25 g ai/ha): 0% | Injury ([6]; Event C, 25 g ai/ha): 5% | average damage [6]: 10% | Injury ([7]; Event G, 1.56 g ai/ha): 58% | Injury ([7]; Event G, 6.25 g ai/ha): 83% | Injury ([7]; Event G, 25 g ai/ha): 100% | Injury ([7]; Event H, 1.56 g ai/ha): 43% | Injury ([7]; Event H, 6.25 g ai/ha): 100% | Injury ([7]; Event H, 25 g ai/ha): 100%
